Experimental data taken from US20210047297A1, “4-(3-AMINO-6-FLUORO-1H-INDAZOL-5-YL)-1,2,6-TRIMETHYL-1,4-DIHYDROPYRIDINE-3,5-DIC ARBONITRILE COMPOUNDS FOR TREATING HYPERPROLIFERATIVE DISORDERS” (Bayer Pharma Aktiengesellschaft, priority 2018, published 2021).

Molecular target: T1, GST-AMPKα2/ß1/γ1 complex (full-length human AMPKα2) (Homo sapiens, UniProt P54619+P54646+Q9Y478)
T1 construct: purchased Carna Biosciences 02-114; host or cells: baculovirus expression system
Experiment: AMPK high ATP assay (TR-FRET-based AMPK activity inhibition assay)
Type: biochemical
Conditions: ATP concentration of 1 mM; median; read-out: AMPK high ATP assay IC50 [mol/l] (median)
Protocol: AMPK inhibitory activity of compounds of the present invention at an ATP concentration of 1 mM was quantified employing the TR-FRET-based AMPK activity inhibition assay as described in the following paragraphs.
Recombinant fusion protein of N-terminal Glutathion-S-Transferase (GST) and full-length human AMPKα2 [1-552(end) amino acids of accession number NP_006243.2] co-expressed with GST-PRKAB1 [1-270(end) amino acids of accession number NP_006244.2] and PRKAG1 [1-331(end) amino acids of accession number NP_002724.1] using a baculovirus expression system, purified as GST-AMPKα2/ß1/γ1 complex by using glutathione sepharose chromatography, activated with His-tagged CaMKK1 and subsequently purified by using glutathione sepharose chromatography, was purchased from Carna Biosciences (product number 02-114) and used as kinase. As substrate for the kinase reaction biotinylated peptide biotin-Ahx-HMRSAMSFAEPG (C-terminus in amide form) was used which can be purchased e.g. form the company Biosyntan (Berlin-Buch, Germany). For the assay 50 nl of a 100 fold concentrated solution of the test compound in DMSO was pipetted into either a black low volume 384 well microtiter plate or a black 1536 well microtiter plate (both Greiner Bio-One, Frickenhausen, Germany), 2 μl of a solution of GST-AMPKα2/ß1/γ1 in aqueous assay buffer [50 mM Hepes pH 7.5, 10 mM MgCl2, 5 mM β-glycerophosphate, 2.5 mM dithiothreitol (DTT), 0.5 mM EGTA, 0.01% (w/v) bovine γ-globulin (Sigma-Aldrich, #G5009), 0.01% (v/v) Triton X-100 (Sigma-Aldrich, #T9284)] were added and the mixture was incubated for 15 min at 22° C. to allow pre-binding of the test compounds to the enzyme before the start of the kinase reaction. Then the kinase reaction was started by the addition of 3 μl of a solution of adenosine-tri-phosphate (ATP, 1.67 mM=>final conc. in the 5 μl assay volume is 1 mM), adenosine-mono-phosphate (AMP, 3.33 μM=>final conc. in the 5 μl assay volume is 2 μM), and substrate (0.83 μM=>final conc. in the 5 μl assay volume is 0.5 μM) in assay buffer and the resulting mixture was incubated for a reaction time of 30 min at 22° C. The concentration of GST-AMPK α2/ß1/γ1 was adjusted depending of the activity of the enzyme lot and was chosen appropriate to have the assay in the linear range, a typical concentration was 0.08 nM. The reaction was stopped by the addition of 3 μl of a solution of TR-FRET detection reagents (0.2 μM streptavidine-XL665 [Cisbio Bioassays, Codolet, France] and 3.33 nM anti-phosho-Serine antibody [Merck Millipore, “STK antibody”, cat. #35-002] and 3.33 nM anti mouse IgG-Tb cryptate, a Terbium-cryptate labelled anti-mouse IgG antibody [Cisbio Bioassays, Codolet, France] in an aqueous EDTA-solution (166.7 mM EDTA, 0.06 (w/v) bovine serum albumin in 50 mM HEPES pH 7.5).
The resulting mixture was incubated 1 h at 22° C. to allow the formation of complex between the phosphorylated biotinylated peptide and the detection reagents. Subsequently the amount of phosphorylated substrate was evaluated by measurement of the resonance energy transfer from the Tb-cryptate to the streptavidine-XL665. Therefore, the fluorescence emissions at 620 nm and 665 nm after excitation at 350 nm was measured in a TR-FRET reader, e.g. a Pherastar FS (BMG Labtechnologies, Offenburg, Germany) or a Viewlux (Perkin-Elmer). The ratio of the emissions at 665 nm and at […] was taken as the measure for the amount of phosphorylated substrate. The data were normalised (enzyme reaction without inhibitor=0 inhibition, all other assay components but no enzyme=100% inhibition).

T1 sequence (P54646 whole entry): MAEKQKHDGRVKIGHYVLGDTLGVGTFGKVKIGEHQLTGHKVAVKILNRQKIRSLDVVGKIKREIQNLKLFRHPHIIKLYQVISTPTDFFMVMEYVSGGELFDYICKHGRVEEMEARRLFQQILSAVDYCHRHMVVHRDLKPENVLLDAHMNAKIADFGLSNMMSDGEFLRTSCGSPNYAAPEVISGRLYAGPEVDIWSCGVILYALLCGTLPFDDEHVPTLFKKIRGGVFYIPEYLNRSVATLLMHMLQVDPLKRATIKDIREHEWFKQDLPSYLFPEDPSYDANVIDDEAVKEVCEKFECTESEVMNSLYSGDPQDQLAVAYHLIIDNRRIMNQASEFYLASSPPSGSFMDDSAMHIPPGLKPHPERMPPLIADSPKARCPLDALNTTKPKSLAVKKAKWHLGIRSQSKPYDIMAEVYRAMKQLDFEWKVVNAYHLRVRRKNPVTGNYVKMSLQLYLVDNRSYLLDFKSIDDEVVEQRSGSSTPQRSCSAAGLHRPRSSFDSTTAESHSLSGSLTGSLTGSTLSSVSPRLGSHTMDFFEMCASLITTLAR
T1 sequence (Q9Y478 whole entry partner): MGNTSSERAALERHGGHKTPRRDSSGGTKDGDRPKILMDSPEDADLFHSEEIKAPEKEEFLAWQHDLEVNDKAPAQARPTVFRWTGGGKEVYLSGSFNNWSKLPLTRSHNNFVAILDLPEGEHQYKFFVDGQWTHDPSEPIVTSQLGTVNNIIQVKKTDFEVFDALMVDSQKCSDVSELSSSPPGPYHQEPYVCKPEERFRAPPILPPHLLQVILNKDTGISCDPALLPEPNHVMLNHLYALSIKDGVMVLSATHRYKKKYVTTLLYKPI
T1 sequence (P54619 whole entry partner): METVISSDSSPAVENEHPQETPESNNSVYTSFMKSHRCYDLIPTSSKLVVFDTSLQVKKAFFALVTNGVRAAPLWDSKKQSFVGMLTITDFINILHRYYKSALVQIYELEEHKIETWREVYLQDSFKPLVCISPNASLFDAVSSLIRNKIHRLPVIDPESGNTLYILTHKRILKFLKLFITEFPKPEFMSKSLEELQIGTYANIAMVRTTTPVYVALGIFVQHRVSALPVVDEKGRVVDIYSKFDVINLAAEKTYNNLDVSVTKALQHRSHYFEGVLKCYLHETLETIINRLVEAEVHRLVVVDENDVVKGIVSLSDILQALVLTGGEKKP

Structure (SMILES)	IC50 [µM]
CC1=C(C#N)C(c2cc3c(NC(=O)C45C6C7C4C4C5C6C74C(=O)N4CCC4)n[nH]c3c(C)c2F)C(C#N)=C(C)N1C (stereo not shown) [Example 23, 4-(azetidine-1-carbonyl)-N-[5-(3,5-dicyano-1,2,6-trimethyl-1,4-dihydropyridin-4-yl)-6-fluoro-7-methyl-1H-indazol-3-yl]cubane-1-carboxamide]	0.105
CC1=C(C#N)C(c2cc3c(NC(=O)c4cn(CC(C)(C)O)nc4C(F)(F)F)n[nH]c3c(C)c2F)C(C#N)=C(C)N1C [Example 17, N-[5-(3,5-dicyano-1,2,6-trimethyl-1,4-dihydropyridin-4-yl)-6-fluoro-7-methyl-1H-indazol-3-yl]-1-(2-hydroxy-2-methylpropyl)-3-(trifluoromethyl)-1H-pyrazole-4-carboxamide]	0.00795
CC1=C(C#N)C(c2cc3c(NC(=O)c4ccccc4Cl)n[nH]c3c(C(F)(F)F)c2F)C(C#N)=C(C)N1C [Example 32, 2-chloro-N-[5-(3,5-dicyano-1,2,6-trimethyl-1,4-dihydropyridin-4-yl)-6-fluoro-7-(trifluoromethyl)-1H-indazol-3-yl]benzamide]	0.0105
CC1=C(C#N)C(c2cc3c(NC(=O)Cc4ccc(C)nc4)n[nH]c3c(C)c2F)C(C#N)=C(C)N1C [Example 14, N-[5-(3,5-dicyano-1,2,6-trimethyl-1,4-dihydropyridin-4-yl)-6-fluoro-7-methyl-1H-indazol-3-yl]-2-(6-methylpyridin-3-yl)acetamide]	0.0215
CCn1nc(C)cc1C(=O)Nc1n[nH]c2c(I)c(F)c(C3C(C#N)=C(C)N(C)C(C)=C3C#N)cc12 [Example 1, N-[5-(3,5-dicyano-1,2,6-trimethyl-1,4-dihydropyridin-4-yl)-6-fluoro-7-iodo-1H-indazol-3-yl]-1-ethyl-3-methyl-1H-pyrazole-5-carboxamide]	0.0626
CC1=C(C#N)C(c2cc3c(NC(=O)c4ccc(OCCN5CCCC5)cc4Cl)n[nH]c3c(C)c2F)C(C#N)=C(C)N1C [Example 20, 2-chloro-N-[5-(3,5-dicyano-1,2,6-trimethyl-1,4-dihydropyridin-4-yl)-6-fluoro-7-methyl-1H-indazol-3-yl]-4-[2-(pyrrolidin-1-yl)ethoxy]benzamide]	0.00066
CC1=C(C#N)C(c2cc3c(NC(=O)c4cnn(CCN5CCCC5)c4C(F)(F)F)n[nH]c3c(C)c2F)C(C#N)=C(C)N1C [Example 19, N-[5-(3,5-dicyano-1,2,6-trimethyl-1,4-dihydropyridin-4-yl)-6-fluoro-7-methyl-1H-indazol-3-yl]-1-[2-(pyrrolidin-1-yl)ethyl]-5-(trifluoromethyl)-1H-pyrazole-4-carboxamide]	0.0376
CC1=C(C#N)C(c2cc3c(NC(=O)c4ccccc4Cl)n[nH]c3c(C)c2F)C(C#N)=C(C)N1C [Example 6, 2-chloro-N-[5-(3,5-dicyano-1,2,6-trimethyl-1,4-dihydropyridin-4-yl)-6-fluoro-7-methyl-1H-indazol-3-yl]benzamide]	0.00365
CCc1c(F)c(C2C(C#N)=C(C)N(C)C(C)=C2C#N)cc2c(NC(=O)c3ccnn3C(C)C)n[nH]c12 [Example 28, N-[5-(3,5-dicyano-1,2,6-trimethyl-1,4-dihydropyridin-4-yl)-7-ethyl-6-fluoro-1H-indazol-3-yl]-1-(propan-2-yl)-1H-pyrazole-5-carboxamide]	0.138
CC1=C(C#N)C(c2cc3c(NC(=O)c4cn(C)nc4C(F)(F)F)n[nH]c3c(C)c2F)C(C#N)=C(C)N1C [Example 9, N-[5-(3,5-dicyano-1,2,6-trimethyl-1,4-dihydropyridin-4-yl)-6-fluoro-7-methyl-1H-indazol-3-yl]-1-methyl-3-(trifluoromethyl)-1H-pyrazole-4-carboxamide]	0.0122
CCc1c(F)c(C2C(C#N)=C(C)N(C)C(C)=C2C#N)cc2c(NC(=O)c3cc(C)nn3CC)n[nH]c12 [Example 30, N-[5-(3,5-dicyano-1,2,6-trimethyl-1,4-dihydropyridin-4-yl)-7-ethyl-6-fluoro-1H-indazol-3-yl]-1-ethyl-3-methyl-1H-pyrazole-5-carboxamide]	0.0686
CCc1ccccc1C(=O)Nc1n[nH]c2c(C)c(F)c(C3C(C#N)=C(C)N(C)C(C)=C3C#N)cc12 [Example 8, N-[5-(3,5-dicyano-1,2,6-trimethyl-1,4-dihydropyridin-4-yl)-6-fluoro-7-methyl-1H-indazol-3-yl]-2-ethylbenzamide]	0.0151
CC1=C(C#N)C(c2cc3c(NC(=O)c4cnn(CC(C)(C)O)c4C(F)(F)F)n[nH]c3c(C)c2F)C(C#N)=C(C)N1C [Example 18, N-[5-(3,5-dicyano-1,2,6-trimethyl-1,4-dihydropyridin-4-yl)-6-fluoro-7-methyl-1H-indazol-3-yl]-1-(2-hydroxy-2-methylpropyl)-5-(trifluoromethyl)-1H-pyrazole-4-carboxamide]	0.0454
